According to paper PMC3274767 (2012):

Columns and labels:
[1] = target: T1, GABAA receptor β3 subunit (α1β3 GABAAR) (Homo sapiens, UniProt P14867+P28472); experiment: [3H]muscimol radioligand filtration binding to purified receptor; settings: cited from earlier work
T1 sequence (P28472 26-473): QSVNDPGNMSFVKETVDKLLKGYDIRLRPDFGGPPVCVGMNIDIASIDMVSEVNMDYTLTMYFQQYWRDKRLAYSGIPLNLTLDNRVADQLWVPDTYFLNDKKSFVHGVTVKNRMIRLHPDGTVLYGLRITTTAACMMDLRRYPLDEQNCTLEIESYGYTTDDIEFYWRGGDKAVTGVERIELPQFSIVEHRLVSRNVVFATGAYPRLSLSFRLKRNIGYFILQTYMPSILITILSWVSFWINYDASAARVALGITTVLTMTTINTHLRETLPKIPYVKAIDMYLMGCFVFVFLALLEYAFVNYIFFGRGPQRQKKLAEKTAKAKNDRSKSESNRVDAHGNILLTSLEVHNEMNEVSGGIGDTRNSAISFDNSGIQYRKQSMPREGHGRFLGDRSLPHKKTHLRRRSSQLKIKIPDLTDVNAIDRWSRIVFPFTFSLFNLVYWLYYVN
T1 sequence (P14867 28-456): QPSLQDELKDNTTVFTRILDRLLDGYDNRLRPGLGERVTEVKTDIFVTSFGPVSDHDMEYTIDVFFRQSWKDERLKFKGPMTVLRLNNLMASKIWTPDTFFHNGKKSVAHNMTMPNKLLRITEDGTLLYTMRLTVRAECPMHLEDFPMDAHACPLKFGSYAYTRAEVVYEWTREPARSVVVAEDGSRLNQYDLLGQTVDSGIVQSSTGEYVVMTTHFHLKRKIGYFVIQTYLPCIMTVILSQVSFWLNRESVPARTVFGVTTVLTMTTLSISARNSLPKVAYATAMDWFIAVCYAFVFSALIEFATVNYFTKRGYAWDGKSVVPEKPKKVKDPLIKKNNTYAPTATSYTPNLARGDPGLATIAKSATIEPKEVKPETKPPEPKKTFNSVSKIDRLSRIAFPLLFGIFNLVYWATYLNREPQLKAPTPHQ

[2] = target: T1, GABAA receptor β3 subunit (α1β3 GABAAR); experiment: photoaffinity labeling with residue identification; format: binding
[3] = target: T2, GABAA receptor α1 subunit (α1β3 GABAAR) (Homo sapiens, UniProt P14867+P28472); experiment: photoaffinity labeling with residue identification; format: binding
T2 sequence (P14867 28-456): T1 sequence (P14867 28-456)
T2 sequence (P28472 26-473): T1 sequence (P28472 26-473)

| Structure (SMILES) | Kd [1] | EC50 [2] | EC50 [3] |
| --- | --- | --- | --- |
| NCc1cc(=O)[nH]o1 [muscimol, 3-hydroxy-5-aminomethylisoxazole] | 0.01 µM |  |  |
| CC(c1ccccc1)n1cncc1C(=O)OCCC1(C)N=N1 (stereo not drawn) [azietomidate, 2-(3-methyl-3H-diaziren-3-yl) ethyl 1-(1-phenylethyl)-1H-imidazole-5-carboxylate] |  | 2.7 ± 1 µM | 2.7 ± 1 µM |
